In ChEMBL document CHEMBL3137667, “[Drug-induced liver injury; fourteenth updated edition of the bibliographic database of liver injuries and related drugs]” (Gastroenterol Clin Biol, 2004):

Tests used:
[1] = Times to onset, minimal and maximal, observed in the indexed observations. [column 'DELAI' in source]; details: human
[2] = human
[3] = human; remark: listed apart in the source
[4] = Highest frequency of acute liver toxicity observed during clinical trials, expressed as a percentage. [column '% AIGUE' in source]; details: human
[5] = Highest frequency of moderate liver toxicity observed during clinical trials, expressed as a percentage. [column '% BIOL' in source]; details: human
[6] = human; remark: listed apart in the source
[7] = human; remark: listed apart in the source
[8] = human, serum
[9] = Presence of at least one case with successful reintroduction. [column 'REINT' in source]; details: human
[10] = human; remark: listed apart in the source
[11] = human, serum; remark: listed apart in the source
[12] = human; remark: listed apart in the source
[13] = human, serum, 4383 h
[14] = human; remark: listed apart in the source
[15] = human; remark: listed apart in the source
[16] = human; remark: listed apart in the source
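Wherever Hepatotoxicity (association with vascular disease) is given: count of indexed literature references reporting vascular liver injury in humans, e.g. peliosis hepatitis, hepatic veno-occlusive disease or Budd-Chiari syndrome.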
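Wherever Hepatotoxicity (benign tumour) is given: value is a count of indexed literature references citing a benign tumour confirmed by histopathology.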
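Wherever Hepatotoxicity (choleostasis) is given: human cholestatic liver injury, shown by histopathology or by peak ALT or AST elevation over alkaline phosphatase ratio below 2, value counts indexed literature reports.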
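Wherever Hepatotoxicity (chronic liver disease) is given: chronic liver injury confirmed by histopathology or persistently raised serum aminotransferase activity beyond 6 months, value given as the count of indexed literature references.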
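Wherever Hepatotoxicity (cirrhosis) is given: value is a count of indexed literature references reporting cirrhosis confirmed by histopathology.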
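Wherever Hepatotoxicity (cytolytic) is given: human cytolytic liver injury, shown by histopathology or by a ratio above 5 of peak ALT or AST elevation to alkaline phosphatase elevation, value counts indexed references.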
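Wherever Hepatotoxicity (granulomatous hepatitis) is given: value is a count of indexed literature references reporting granulomatous liver disease confirmed by histopathology.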
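Wherever Hepatotoxicity (malignant tumour) is given: malignant tumour confirmed by histopathology, value gives the count of indexed literature references reporting it.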
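Wherever Hepatotoxicity (severe hepatitis) is given: human clinical data: severe hepatitis, meaning potentially life-threatening liver failure or clinically observed cases, the value counts how many indexed literature references report it.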
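Wherever Hepatotoxicity (steatosis) is given: steatosis confirmed by histopathology, value is the count of indexed references.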

| SMILES | Hepatotoxicity (time to onset) [1] | Hepatotoxicity (cytolytic) [2] | Hepatotoxicity (cirrhosis) [3] | Hepatotoxicity (acute) [4] [%] | Hepatotoxicity (moderate) [5] [%] | Hepatotoxicity (benign tumour) [6] | Hepatotoxicity (malignant tumour) [7] | Hepatotoxicity (moderate) [8] | Hepatotoxicity (successful reintroduction) [9] | Hepatotoxicity (association with vascular disease) [10] | Hepatotoxicity (acute) [11] | Hepatotoxicity (granulomatous hepatitis) [12] | Hepatotoxicity (chronic liver disease) [13] | Hepatotoxicity (severe hepatitis) [14] | Hepatotoxicity (steatosis) [15] | Hepatotoxicity (choleostasis) [16] | also measured |
| --- | --- | --- | --- | --- | --- | --- | --- | --- | --- | --- | --- | --- | --- | --- | --- | --- | --- |
| C/C=C(/CC)C(=O)NC(N)=O | 3 weeks | 0 | 0 | 0 | 0 | 0 | 0 | 0 | yes | 0 | 1 | 0 | 0 | 0 | 0 | 0 | – |
| Nc1nc(N)c2nc(-c3ccccc3)c(N)nc2n1 | 2 days - 3 weeks | 1 | 0 | 0 | 0 | 0 | 0 | 1 | yes | 0 | 1 | 0 | 0 | 1 | 0 | 0 | – |
| N[C@@H](Cc1ccc(N(CCCl)CCCl)cc1)C(=O)O | 6 days - 7 weeks | 0 | 0 | 0 | 8 | 0 | 0 | 1 | yes | 2 | 2 | 0 | 0 | 0 | 0 | 1 | – |
| O=C(O)COC(=O)Cc1ccccc1Nc1c(Cl)cccc1Cl [ACECLOFENAC] | 1 week - 3 weeks | 2 | 0 | 0 | 3.3 | 0 | 0 | 5 | yes | 0 | 3 | 0 | 0 | 0 | 0 | 0 | – |
| CCC1(c2ccc(N)cc2)CCC(=O)NC1=O (stereo not drawn) [AMINOGLUTETHIMIDE] | 1 day - 10 weeks | 2 | 0 | 0 | 67 | 0 | 0 | 4 | yes | 0 | 4 | 0 | 0 | 0 | 0 | 3 | – |
| CCN(CC)CCCN(c1ccccc1)C1Cc2ccccc2C1 [APRINDINE] | 5 days - 2 months | 4 | 0 | 0.1 | 1 | 0 | 0 | 1 | yes | 0 | 9 | 1 | 0 | 0 | 0 | 7 | – |
| O=C1C(O)=C([C@H]2CC[C@H](c3ccc(Cl)cc3)CC2)C(=O)c2ccccc21 [ATOVAQUONE] | 10 days - 6 weeks | 2 | 0 | 5.3 | 16 | 0 | 0 | 9 | yes | 0 | 2 | 0 | 0 | 0 | 0 | 0 | – |
| CCc1oc2ccccc2c1C(=O)c1cc(Br)c(O)c(Br)c1 [BENZBROMARONE] | 1.5 months - 5 months | 5 | 0 | 0 | 0 | 0 | 0 | 1 | yes | 0 | 5 | 0 | 0 | 4 | 0 | 0 | – |
| CNC1=Nc2ccc(Cl)cc2C(c2ccccc2)=[N+]([O-])C1 [CHLORDIAZEPOXIDE] | 2 days - 3 years | 1 | 0 | 0 | 11 | 0 | 0 | 3 | yes | 0 | – | 0 | 0 | 0 | 0 | 3 | – |
| CCc1c2c(nc3ccc(OC(=O)N4CCC(N5CCCCC5)CC4)cc13)-c1cc3c(c(=O)n1C2)COC(=O)[C@]3(O)CC [IRINOTECAN] | – | 1 | 0 | – | – | 0 | 0 | 12 | yes | 0 | 3 | 0 | 0 | – | 0 | 2 | Hepatotoxicity (acute) ([4]; Liver): 4.2%; Hepatotoxicity (moderate) ([5]; Liver): 13.3%; Hepatotoxicity (severe hepatitis) ([14]; Liver): 0 |
| O=[N+]([O-])O[C@H]1CO[C@H]2[C@@H]1OC[C@H]2O[N+](=O)[O-] [ISOSORBIDE DINITRATE] | – | 0 | 0 | 0 | 0 | 0 | 0 | 1 | yes | 0 | 1 | 0 | 0 | 0 | 0 | 0 | – |
| COc1c2occc2cc2ccc(=O)oc12 [METHOXSALEN] | 2 hours - 5 months | 3 | 0 | – | – | 0 | 0 | 1 | yes | 0 | – | 0 | 0 | – | 0 | 0 | Hepatotoxicity (acute) ([4]; Liver): 0%; Hepatotoxicity (moderate) ([5]; Liver): 0%; Hepatotoxicity (severe hepatitis) ([14]; Liver): 1 |
| COc1cc(Cc2cnc(N)nc2N)cc(OC)c1OC [TRIMETHOPRIM] | 5 days - 24 days | – | 0 | – | – | 0 | 0 | 1 | yes | 0 | – | – | 0 | – | 0 | – | Hepatotoxicity (cytolytic) ([2]; Liver): 2; Hepatotoxicity (acute) ([4]; Liver): 0%; Hepatotoxicity (moderate) ([5]; Liver): 5.9%; Hepatotoxicity (granulomatous hepatitis) ([12]; Liver): 0; Hepatotoxicity (severe hepatitis) ([14]; Liver): 1; Hepatotoxicity (choleostasis) ([16]; Liver): 5 |
| COc1cc(C(=S)N2CCOCC2)cc(OC)c1OC [TRITIOZINE] | – | 0 | 0 | 0 | 3 | 0 | 0 | 1 | yes | 0 | 2 | 0 | 0 | 0 | 0 | 0 | – |
